Reference: PubChem BioAssay (NCI)
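How tested: cells in 96-well plates exposed to compound for 48 hours at five concentrations. GI50 marks 50% less growth. TGI is the concentration that stops growth completely.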

Experiments:
Assay in all cases: NCI anticancer screen, dose series, 48 h
SF-268 CNS = system: SF-268 CNS
OVCAR-5 ovarian = system: OVCAR-5 ovarian
RPMI-8226 leukemia = system: RPMI-8226 leukemia
U251 CNS = system: U251 CNS
SNB-19 CNS = system: SNB-19 CNS
M14 melanoma = system: M14 melanoma
NCI-H23 lung = system: NCI-H23 lung
SNB-75 CNS = system: SNB-75 CNS
UACC-257 melanoma = system: UACC-257 melanoma
NCI/ADR-RES ovarian = system: NCI/ADR-RES ovarian

Structure (SMILES) | TGI (SF-268 CNS) [µM] | TGI (OVCAR-5 ovarian) [µM] | TGI (RPMI-8226 leukemia) [µM] | TGI (U251 CNS) [µM] | TGI (SNB-19 CNS) [µM] | TGI (M14 melanoma) [µM] | TGI (NCI-H23 lung) [µM] | TGI (SNB-75 CNS) [µM] | GI50 (RPMI-8226 leukemia) [µM] | GI50 (M14 melanoma) [µM] | GI50 (UACC-257 melanoma) [µM] | TGI (UACC-257 melanoma) [µM] | TGI (NCI/ADR-RES ovarian) [µM]
c1ccc2[nH]c(CNc3ccc(C4C[Se]N=N4)cc3)nc2c1 (stereo not drawn) | > 100 | > 100 | 81.3 | > 100 | > 100 | > 100 | > 100 | > 100 |  |  |  |  | 
CC(=O)Oc1c(C)c(C)c2c(c1C)CCC(C)(CC(=O)OCCCCCCCCCCC[P+](c1ccccc1)(c1ccccc1)c1ccccc1)O2 (stereo not drawn) |  |  | 1.15 |  |  | 1.56 |  |  | 0.237 | 0.408 | 0.268 | 0.78 | 
O=C1/C(=C/c2cccc([N+](=O)[O-])c2)Sc2scc(-c3ccc([N+](=O)[O-])cc3)[n+]21 |  | 51.2 |  | > 100 | 46.1 | > 100 | 35.5 | 32.1 |  |  |  | 69.8 | 89.2
COC1C(O)C(O[C@H]2CC[C@@]3(C)C(CC[C@@H]4[C@@H]3CC[C@]3(C)[C@@H](C(C)OC5OC(CO)C(O)C(O)C5O)CC[C@]43O)C2)OC(C)C1OC1OC(CO)C(O)C(O)C1O (stereo partly drawn) | > 100 | > 100 | > 100 | > 100 | > 100 | > 100 | > 100 | > 100 |  |  |  | > 100 | > 100
CN(C)CCCNC(=O)c1c(O)c2ccccc2n(C)c1=O | > 100 | > 100 | > 100 | > 100 |  |  | > 100 | > 100 |  |  |  | > 100 | > 100
CCOC(=O)c1c(SCCN2CCOCC2)n(-c2ccccc2)c(=S)n(-c2ccccc2)c1=O | > 100 | > 100 | 94.1 | > 100 | > 100 | > 100 | 92.3 | > 100 |  |  |  | 48.1 | 
O=C1CS(=O)(=O)C(c2cccc(Oc3ccccc3)c2)N1c1cc(Cl)ccc1Cl (stereo not drawn) | 52.8 | > 100 |  | 29.1 | 57 | 43.1 | > 100 | 33.1 |  |  |  | 55.9 | 77.8
CSc1nc2c(ncn2C2OC(CO)C(O)C(O)C2O)c(=O)[nH]1 (stereo not drawn) | > 100 | > 100 | > 100 | > 100 | > 100 |  | > 100 | > 100 |  |  |  | > 100 | > 100
O=[N+]([O-])/C(Cl)=C(\NCCN/C(C(Cl)=C(Cl)Cl)=C(/Cl)[N+](=O)[O-])C(Cl)=C(Cl)Cl | > 100 | > 100 | 65.8 | > 100 | > 100 | > 100 | > 100 | > 100 |  |  |  |  | > 100
CC1(C)N=C2C(=O)c3c([nH]c4ccccc34)[C@]3(C)CCC1CC23 (stereo partly drawn) | > 6.25 | > 6.25 | > 6.25 | > 6.25 |  |  | > 6.25 | > 6.25 |  |  |  | > 6.25 | > 6.25
C/C(=C\CO)CC/C=C(\C)CNc1ccc([N+](=O)[O-])cc1 | > 100 | > 100 |  | > 100 | > 100 | > 100 | 57.7 | > 100 |  |  |  | 76.2 | 64.5
